SMILES strings stand for the structures.

In the first experiment the test system is lipid-peroxide formation in cerebral homogenate. The experiment is described as follows: Lipid-peroxide formation inhibiting activity (TBA method, cerebral homogenate). Type of experiment: biochemical, Wistar strain male rat. The note with it: at 100 μM; rat cerebral homogenate, 30 minutes at 37° C. The procedure:
(1) Lipid-peroxide formation inhibiting activity
(a) Preparation of cerebral homogenate
[…]. Then, cerebral irrigation was made with ice-cold physiological saline solution buffered with 50 mM phosphoric acid (pH value of 7.4, hereinafter referred to as "PBS"), and the whole brain was extracted. After removing the cerebellum, the cerebrum was weighed in the wet state, added with PBS of 9 times the weight and homogenized in ice-cold water with a teflon homogenizer. The cerebral homogenate was centrifuged at […] and 2200 rpm for 10 minutes, and 0.3 ml of the supernatant was partitioned into a ground stoppered light-resistant test tube to prepare a cerebral homogenate to be used for drug evaluation.
(b) Evaluation of test drug
The cerebral homogenate which was prepared by the above procedure (a) was added with 0.6 ml of PBS and 10 μl of ethanol solution which contained the test drug of […] in final concentration and incubated for 30 minutes in a water bath at 37° C. Then, the mixture was added with 200 μl of aqueous 35% solution of perchloric acid and centrifuged at 4° C and 2,600 rpm for 10 minutes to collect the supernatant.
In addition, 10 μl of ethanol (blank) was added instead of the test drug.
(c) Determination of lipid peroxide
The supernatant of 0.1 ml which was obtained in the above procedure (b) was added with 0.2 ml of aqueous 8.1% sodium dodecyl sulfate solution, 1.5 ml of 20% acetic acid buffer solution (pH of 3.5), 1.5 ml of 0.67% 2-thiobarbituric acid solution and 0.7 ml of distilled water and mixed. The mixed solution was heated for 60 minutes in boiling water bath, quenched with ice-cold water and added with 1.0 ml of distilled water and 5.0 ml of a mixture solution of pyridine and butanol (1:15). After 30 seconds of shaking, the mixed solution was centrifuged at 3,000 rpm for 10 minutes, and the supernatant was collected as the sample for lipid peroxide measurement.
In addition, 0.1 ml of Lipoperoxide-test reagent (Wako Pure Chemicals Co., Ltd.: 1,1,3,3-tetraethoxypropane is contained by […]) was added instead of the cerebral homogenate obtained in the above procedure (b) to prepare the reference solution
The amount of lipid peroxide was measured at a excitation wavelength of 515 nm and a fluorescence wavelength of 550 nm using a fluoro-spectrophotometer (Model 204, made by Hitachi, Ltd.) and calculated by the following formula: [formula] where, F=fluorescence intensity of the reference solution
f=fluorescence intensity of the test drug.
Then, the inhibition rates of the test drugs at each concentration were obtained for the TBA value of the blank under (b) above and IC value were calculated by the method of least square means.
As to `O=C(O)Cc1ccc(N2N=C(c3cccnc3)CC2=O)cc1` [Compound No. 9, 4-[3-(3-pyridyl)-5-oxo-2-pyrazolin-1-il] phenylacetic acid], the “Percent inhibition at 100 μM” value is 2.6%.
Same read-out and setting: then `O=C(O)c1ccc(N2N=C(Cn3ccnc3)CC2=O)cc1` [Compound No. 49], with 12.9%.
Regarding `O=C(O)c1ccc(N2N=C(c3cccnc3)CC2=O)cc1` [compound 7], the “Percent inhibition at 100 μM” value was found to be 1.9%.
In the case of `O=C1CC(c2cccnc2)=NN1c1ccccn1` [compound 12], the “Percent inhibition at 100 μM” value is on record as 43.2%.
Consider `CCC1C(=O)N(C2CCCCC2)N=C1c1cccnc1` (centres unmarked) [compound 21], for which the “Percent inhibition at 100 μM” value is recorded as 1.0%.
Take `CCCC1C(=O)N(C2CCCCC2)N=C1c1cccnc1` (centres unmarked) [compound 23]: the “Percent inhibition at 100 μM” value stood at 46.1%.
In the case of `O=C(O)c1ccc(N2N=C(Cc3cccnc3)CC2=O)cc1` [compound 29], the “Percent inhibition at 100 μM” value is reported as 17.6%.

Still in this experiment, the particulars now being: rat cerebral homogenate, incubated 30 minutes at 37° C.
What is called IC50 is the concentration that inhibits the measured activity by half. Lower therefore signals greater potency. As for `COc1ccc(N2N=C(c3cccnc3)CC2=O)cc1` [Compound No. 4], the IC50 amounted to 37 µM.
In the case of `CCOc1ccc(N2N=C(c3cccnc3)CC2=O)cc1` [Compound No. 5], half-maximal inhibition (IC50) required 12.9 µM.
Same read-out and setting: then `O=C1CC(c2cccnc2)=NN1c1ccc(O)cc1` [Compound No. 10, 1-(4-hydroxyphenyl)-3-(3-pyridyl)-2-pyrazolin-5-one], with 102 µM; and `Cc1ccc(N2N=C(c3cccnc3)CC2=O)cc1` [compound 2], with 10.3 µM.
Take `CCc1ccc(N2N=C(c3cccnc3)CC2=O)cc1` [compound 3]: the IC50 worked out at 4 µM.
On the same count and under the same terms, then `O=C1CC(c2cccnc2)=NN1c1ccc(Cl)cc1` [compound 6], with 4.3 µM; and `CCOC(=O)Cc1ccc(N2N=C(c3cccnc3)CC2=O)cc1` [compound 8], with 13.6 µM; and `O=C1CC(c2cccnc2)=NN1C1CCCCC1` [compound 11], with 16.9 µM.
For the compound `O=C1CC(c2cccnc2)=NN1c1nc2ccccc2s1` [compound 13], half-maximal inhibition (IC50) was put at 84.1 µM.
The same measure, in the same setting: then `CC1C(=O)N(c2ccccc2)N=C1c1cccnc1` (centres unmarked) [compound 14], with 38.9 µM; and `Cc1ccc(N2N=C(c3cccnc3)C(C)C2=O)cc1` (centres unmarked) [compound 15], with 12.5 µM; and `COc1ccc(N2N=C(c3cccnc3)C(C)C2=O)cc1` (centres unmarked) [compound 16], with 46.3 µM.
Regarding `CC1C(=O)N(c2ccc(Cl)cc2)N=C1c1cccnc1` (centres unmarked) [compound 17], the IC50 worked out at 7.1 µM.
On the same count and under the same terms, then `CC1C(=O)N(C2CCCCC2)N=C1c1cccnc1` (centres unmarked) [compound 18], with 29.3 µM; and `CC1C(=O)N(c2ccccn2)N=C1c1cccnc1` (centres unmarked) [compound 19], with 12.3 µM.
For `CCC1C(=O)N(c2ccccc2)N=C1c1cccnc1` (centres unmarked) [compound 20], the IC50 came out at 29.4 µM.
The compound `CCCC1C(=O)N(c2ccccc2)N=C1c1cccnc1` (centres unmarked) [compound 22] returned an IC50 of 28.2 µM.
Still for that read-out and setting: then `Cc1ccc(N2N=C(Cc3cccnc3)CC2=O)cc1` [compound 25], with 7.4 µM.
In turn, `COc1ccc(N2N=C(Cc3cccnc3)CC2=O)cc1` [compound 26] registered an IC50 of 23.6 µM.
With `CCOc1ccc(N2N=C(Cc3cccnc3)CC2=O)cc1` [compound 27], the IC50 was determined as 12.2 µM.
Compound `O=C1CC(Cc2cccnc2)=NN1c1ccc(Cl)cc1` [compound 28] gave an IC50 of 4.1 µM.
`O=C1CC(Cc2cccnc2)=NN1C1CCCCC1` [compound 30] returned a concentration for half-maximal inhibition (IC50) of 24 µM.
As for `O=C1CC(Cc2cccnc2)=NN1c1ccccn1` [compound 31], 6.2 µM corresponded to half-maximal inhibition (IC50).
The compound `O=C1CC(c2ccco2)=NN1c1ccccc1` [compound 32] showed a half-inhibitory concentration (IC50) of 4.3 µM.
The same measure, in the same setting: with `Cc1ccc(N2N=C(c3ccco3)CC2=O)cc1` [compound 33] the figure was 4.1 µM.
`COc1ccc(N2N=C(c3ccco3)CC2=O)cc1` [compound 34] gave an IC50 of 6.5 µM.
In turn, `O=C1CC(c2ccco2)=NN1c1ccc(Cl)cc1` [compound 35] came in with an IC50 of 3.7 µM.
On the same count and under the same terms, with `O=C1CC(c2ccco2)=NN1C1CCCCC1` [compound 36] the figure was 8.3 µM.

The record behind these values is patent US5089515A, “Lipid-peroxide formation inhibiting composition and novel compounds useful therefor” (priority 1986, dated 1992).
